Experimental data published in patent US9861694B2, “EGFR antagonist for the treatment of heart disease” (priority 2010, dated 2018).

Key:
[1] = test system: adult cardiac myofibroblasts; assay: Collagen I synthesis by PINP ELISA in conditioned media of treated cardiac myofibroblasts; assay type: cell-based, mice; details: for decrease in collagen I synthesis: 10 ng/ml EGF, 24 hours
Procedure: (§1) Cardiac myofibroblast cultures were prepared from ventricles of WT and TIMP-3^−/− mice as previously described. Briefly, hearts were aseptically isolated from adult mice. The ventricles were minced and digested with collagenase and disapase. Fibroblasts subcultured for 2 generations were seeded on culture plates and used for all in vitro experiments. After 2 passages virtually all fibroblasts differentiate into myofibroblasts. Purity of myofibroblasts was verified by FSP-1 and α-smooth muscle actin double staining. Cell proliferation was assessed by Ki67 and FSP-1 double staining.
(§2) To determine the effect of EGF and TGF-β1 on collagen expression and synthesis, adult cardiac myofibroblasts subcultured for 2 generations were placed in low serum (5% FBS) for 24 hours and subsequently treated with either recombinant mouse EGF (rEGF, R&D […], CA) in DMEM containing 5% FBS and cultured for another 24 hours or with TGF-β1 (Millipore, Mass.) and cultured for another 48 hours. Cells were then harvested and experiments were conducted.
Collagen I synthesis was assessed in the LV myocardium and in conditioned media collected for cultured myofibroblasts using a rat/mouse procollagen I N-terminal peptide (PINP) ELISA kit (IDS-Medicorp, Quebec) according to the manufacturer's instructions. The LV tissues of sham mice and the infarct regions of WT and TIMP-3^−/− mice 5 days post-MI were homogenized in PBS and centrifuged. The supernatant was then collected and protein concentrations were measured. For tissues, 25 μg of total protein was used, while for media, 10 μL of conditioned media was used in the assay. Measurements of absorbances were made using SpectraMax M5 microplate reader at a wavelength of 450 nm. Values are expressed as either ng collagen per mg myocardial tissue or ng/ml conditioned media.

[2] = test system: adult cardiac myofibroblasts; assay: Collagen I/III and TGF-β1 expression by real-time RT-PCR in treated cardiac myofibroblasts; assay type: cell-based, mice; details: for decrease in TGF-β1 levels / decrease in collagen I expression / decrease in collagen III expression: 10 ng/ml EGF, 24 hours
Procedure: as §1, §2
Total RNA was extracted from adult cultured myofibroblasts as well as LV tissue of WT and TIMP-3^−/− sham and the infarct region of MI mice 5 days post-surgery using Trizol as previously described. cDNA was synthesized using M-MLV reverse transcriptase (Invitrogen, ON). Real-time PCR was conducted using SYBR Green PCR Master Mix as per manufacturer's instructions (Applied Biological Materials, BC). 28S rRNA (house keeping gene) was used as a loading control since previous studies have shown that it is a reliable loading control especially for use in experiments with hypoxia and MI [13].

[3] = 10 ng/ml TGF-β1 (high concentration), 48 hours, P<0.01

| Substance | decrease in collagen I synthesis ([1]; TIMP-3−/− myofibroblasts) | decrease in collagen I synthesis ([1]; WT myofibroblasts) | effect on collagen I or III expression ([2]; 1 ng/ml EGF (low concentration)) | decrease in TGF-β1 levels ([2]; TIMP-3−/− myofibroblasts) | decrease in collagen I expression ([2]; TIMP-3−/− myofibroblasts) | decrease in collagen III expression ([2]; TIMP-3−/− myofibroblasts) | decrease in TGF-β1 levels ([2]; WT myofibroblasts) | decrease in collagen I expression ([2]; WT myofibroblasts) | decrease in collagen III expression ([2]; WT myofibroblasts) | collagen I synthesis [1, 3] | collagen I and III expression ([2]; 1 ng/ml TGF-β1 (low concentration), 48 hours, P<0.05) | collagen I expression [2, 3] | effect on collagen III compared to controls ([2]; 10 ng/ml TGF-β1 (high concentration), 48 hours, P=n.s.) |
| --- | --- | --- | --- | --- | --- | --- | --- | --- | --- | --- | --- | --- | --- |
| EGF: recombinant mouse epidermal growth factor (rEGF) used to treat cardiac myofibroblasts | 39% | 28% | little effect | 43% | 47% | 51% | 22% | 38% | 41% | – | – | – | – |
| TGF-β1: human recombinant transforming growth factor-beta 1 (Millipore) used to treat cardiac myofibroblasts | – | – | – | – | – | – | – | – | – | further increase | significant increase | further increase | no effect |
